This note sets out measurements from patent publication US6878733B1, “Formulations for pharmaceutical agents ionizable as free acids or free bases” (Sugen, Inc., priority 1999, dated 2005).

Series [1] relates to SF763T human glioma. The series is described as follows: SC tumor xenograft growth, SF763T. It counts as in vivo, BALB/c nu/nu mice. Particulars: IP in DMSO, 75 mg/kg/d daily. The method, then:
(§1) Medium was changed every two to three days.
(§2) In most experiments, compound was administered daily.
(§3) Tumor growth was measured using venier calipers. Tumor volumes were calculated as the produce of length x width x height.

Series [2] concerns PDGF receptor. The series can be described thus: Inhibition of signal transduction via PDGF receptor.
The subject of series [3] is FGF receptor. The series can be described thus: Inhibition of signal transduction via FGF receptor.
Series [4] relates to C6 rat glioma. The series can be described thus: SC tumor xenograft growth, C6, treatment from one day post-implantation. It counts as in vivo, BALB/c nu/nu mice. The conditions noted are these: IP. The method, then: as §2, §3
The subject of series [5] is A375 human melanoma. The series can be described thus: SC tumor xenograft growth, A375. Particulars: IP in DMSO, 75 mg/kg/d dosed 3x/week. Format: in vivo. The method, then: as §2, §3
For series [6], the system named is EpH4-VEGF1 murine epithelial. The series is described as follows: SC tumor xenograft growth, EpH4-VEGF1. It counts as in vivo. The conditions noted are these: IP in DMSO, 75 mg/kg/d daily. The method, then:
as §2, §3

For series [7], the system named is A431 human epidermal. The series is described as follows: SC tumor xenograft growth, A431. Format: in vivo, BALB/c nu/nu mice. The conditions noted are these: IP in DMSO, 100 mg/kg/d daily. The method, then:
as §2, §3

Series [8] concerns C6 cells. The series can be described thus: Efficacy on established C6 SC tumors. The conditions noted are these: IP 75 mg/kg/day, onset delayed until measurable tumors were present (Day 7). Format: in vivo, athymic mice.
Series [9] concerns SF767T human glioma. The series can be described thus: SC tumor xenograft growth, SF767T. Format: in vivo, BALB/c nu/nu mice. The conditions noted are these: IP in DMSO, 75 mg/kg/d daily. As for the experimental part:
as §1, §2, §3

Series [10] has as its target Flk-1/KDR (Homo sapiens, UniProt P35968). The series can be described thus: Inhibition of signal transduction via Flk-1/KDR.
Series [11] in a line: pH solubility profile. Format: physicochemical. The conditions noted are these: 0.1 M phosphate buffer, thermodynamic from solid.
Description: The solution was filtered, appropriate dilutions made and the concentration of the compound in the supernatant was analyzed by a reverse phase HPLC method.
Series [12] can be described thus: physchem. Format: physicochemical.
A short description of series [13]: Oral bioavailability of formulations in beagle dogs. Particulars: at higher doses in fasted conditions. It counts as in vivo. The method, then:
The formulation described below enhance the oral bioaviability of COMPOUND IV in beagle dogs, a preclinical absorption model.
Both formulations contain 50 mg/gm of Pluroanic F-68. The formulation at 50 mg/gm of COMPOUND IV contains 900 mgs of sesame oil and the one that contains 250 mg/gm of COMPOUND IV contains 700 mgs of sesame oil.
AUC refers to the area under the curve of the plasma concentration time curve and represents oral bioavilability (BA). Higher AUC indicates higher BA.

Series [14] is described as follows: Solubility of in situ salts versus free acid. It counts as physicochemical.

Molecules are shown by their SMILES. In brackets after ≈: the same amount, converted by molar mass.

Sequence of Flk-1/KDR (P35968 20-1356): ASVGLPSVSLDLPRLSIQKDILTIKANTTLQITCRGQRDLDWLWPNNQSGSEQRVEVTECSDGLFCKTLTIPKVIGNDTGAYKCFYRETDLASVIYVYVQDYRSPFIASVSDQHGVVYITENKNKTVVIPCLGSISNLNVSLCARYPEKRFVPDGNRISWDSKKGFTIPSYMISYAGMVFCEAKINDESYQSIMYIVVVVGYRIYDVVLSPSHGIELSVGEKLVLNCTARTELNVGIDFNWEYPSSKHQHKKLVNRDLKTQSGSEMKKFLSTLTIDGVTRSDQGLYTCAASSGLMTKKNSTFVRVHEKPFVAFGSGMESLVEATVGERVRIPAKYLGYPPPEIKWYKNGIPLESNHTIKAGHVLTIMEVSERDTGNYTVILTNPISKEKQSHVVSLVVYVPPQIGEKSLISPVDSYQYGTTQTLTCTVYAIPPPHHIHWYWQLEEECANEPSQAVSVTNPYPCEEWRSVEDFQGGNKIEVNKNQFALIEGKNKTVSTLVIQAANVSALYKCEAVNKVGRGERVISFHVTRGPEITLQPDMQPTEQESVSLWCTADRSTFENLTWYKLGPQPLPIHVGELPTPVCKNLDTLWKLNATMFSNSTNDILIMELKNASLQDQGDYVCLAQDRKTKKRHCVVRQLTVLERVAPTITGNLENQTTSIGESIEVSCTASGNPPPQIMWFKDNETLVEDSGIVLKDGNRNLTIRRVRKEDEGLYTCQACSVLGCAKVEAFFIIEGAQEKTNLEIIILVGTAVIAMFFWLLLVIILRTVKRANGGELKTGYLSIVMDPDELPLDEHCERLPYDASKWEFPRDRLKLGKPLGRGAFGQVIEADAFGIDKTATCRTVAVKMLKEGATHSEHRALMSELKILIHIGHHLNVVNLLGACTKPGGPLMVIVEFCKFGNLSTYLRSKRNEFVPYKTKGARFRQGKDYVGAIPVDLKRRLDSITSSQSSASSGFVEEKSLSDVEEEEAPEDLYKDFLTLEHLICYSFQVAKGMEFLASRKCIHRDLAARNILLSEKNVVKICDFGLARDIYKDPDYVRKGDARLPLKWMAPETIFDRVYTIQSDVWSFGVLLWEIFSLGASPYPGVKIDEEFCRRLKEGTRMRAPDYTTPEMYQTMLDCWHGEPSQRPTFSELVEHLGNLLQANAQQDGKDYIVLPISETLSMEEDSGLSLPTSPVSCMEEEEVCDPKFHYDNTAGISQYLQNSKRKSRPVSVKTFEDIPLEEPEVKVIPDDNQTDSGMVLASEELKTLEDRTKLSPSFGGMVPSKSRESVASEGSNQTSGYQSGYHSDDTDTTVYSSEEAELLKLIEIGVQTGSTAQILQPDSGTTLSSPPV

A word on the solubility: it is how much of the substance goes into solution per volume. For orientation: logP means a log measure of how a compound divides between an organic and an aqueous phase. A low value points to a more hydrophilic compound. Broadly, the pKa is the pH at which an ionisable group is half protonated. A low value points to a stronger acid or weaker base. Usually logD stands for the decadic logarithm of the distribution of all forms, ionised or not, between an organic phase and buffer at a given pH. A higher logD goes with higher lipophilicity. For the compound `Cc1[nH]c(C=C2C(=O)Nc3ccccc32)c(C)c1CCC(=O)O` [3-[2,4-Dimethyl-5-(2-oxo-1,2-dihydro-indol-3-ylidenemethyl)-1H-pyrrol-3-yl]-propionic acid], the “% Mortality” value in [1] was found to be 12.5%; in series [5] it was 0%; in series [6], 0%; in series [7], 12.5%; in [9] it was 12.5%. Moreover, the “inhibitor of signal transduction via PDGF receptor” value in [2] is “potent inhibitor”. For the same compound, in series [3], the “inhibitor of signal transduction via FGF receptor” value is given as “potent inhibitor”. The “% Inhibition (at day)” value in series [4] (25 mg/kg Daily × 5, day 18, ns (P > 0.05)) is on record as 1 (18) %. In addition, the tumor growth inhibition result in [4] (100 mg/kg twice weekly or three times weekly, statistically significant) is on record as “approximately 40%”. Also, the “efficacy on established tumors” value in series [8] was “efficacious”. Moreover, the “inhibitor of signal transduction via Flk-1/KDR” value in series [10] is recorded as “potent inhibitor”. For the same compound, the solubility in series [11] (pH 6, aqueous buffer, pH of buffer 6.0 (0.1 M phosphate), average pH at equilibrium 6.06, two lots) is 2.4 µg/mL (≈ 7.73 µM); in series [11] (pH 6.5, aqueous buffer, pH of buffer 6.5 (0.1 M phosphate), average pH at equilibrium 6.52), 4 µg/mL (≈ 12.9 µM); in series [11] (pH 7, aqueous buffer, pH of buffer 7.0 (0.1 M phosphate), average pH at equilibrium 6.96) it was 9 µg/mL (≈ 29 µM); in series [11] (pH 7.4, aqueous buffer, pH of buffer 7.4 (0.1 M phosphate), average pH at equilibrium 7.39), 19 µg/mL (≈ 61.2 µM). Also, in series [12], the logP was 3.85. The compound further displayed a pKa in series [12] of 5.02. The compound further yielded a logD in series [12] (pH 7.4) of 1.5.

In the case of `Cc1[nH]c(/C=C2\C(=O)Nc3ccccc32)c(C)c1CCC(=O)O` [COMPOUND IV, 3-[2,4-dimethyl-5-(2-oxo-1,2-dihydro-indol-3-ylidenemethyl)-1H-pyrrol-3-yl]-propionic acid], in series [13], the oral bioavailability result is “low bioavailability”.

Turning to `Cc1[nH]c(C=C2C(=O)Nc3ccccc32)c(C)c1CCC(=O)O` [Meglumine, 3-[2,4-dimethyl-5-(2-oxo-1,2-dihydro-indol-3-ylidenemethyl)-1H-pyrrol-3-yl]-propionic acid], in series [14] (aqueous solution of the salt formed in situ, salt of 3-[2,4-dimethyl-5-(2-oxo-1,2-dihydro-indol-3-ylidenemethyl)-1H-pyrrol-3-yl]-propionic acid, in situ salt formation, pH in the column beside, read-out: Solubility), the solubility was found to be 7900 µg/mL.

For the compound `Cc1[nH]c(C=C2C(=O)Nc3ccccc32)c(C)c1CCC(=O)O` [free acid, 3-[2,4-dimethyl-5-(2-oxo-1,2-dihydro-indol-3-ylidenemethyl)-1H-pyrrol-3-yl]-propionic acid], the solubility was less than 100 µg/mL in series [14] (water, aqueous, sodium salt compared to free acid, read-out: solubility) and approximately 30 µg/mL in series [14] (water, free acid, for comparison with the sodium salt, read-out: aqueous solubility).
